These results are taken from patent publication US20240180893A1, “METHODS OF TREATMENT OF BREAST CANCER” (AstraZeneca AB, priority 2022, published 2024).

Format in all cases: in vivo, human (post-menopausal women)
For assay [1], the system named is HR+, HER2− metastatic or loco-regionally recurrent breast cancer. The experiment in a line: SERENA-2 phase 2 study: PFS, RECIST 1.1, by Blinded Independent Central Review (BICR). The conditions noted are these: all patients. The source says: Measures to minimise bias: randomisation and blinding. This is an open-label study. All patients will receive active treatment. As the Investigators will not be blinded to study treatments, a BICR of tumour scans will be performed to provide independent tumour response assessment in addition to response evaluation by Investigator. To reduce potential bias during the study, eligible patients will be randomly allocated at a 1:1:1:1 ratio to receive 1 of the 4 study treatments.
Blinded Independent Central Review of tumour assessments. Coded copies of all imaging assessments (regardless of modality and including unscheduled visit scans) will be sent to an appointed Contract Research Organisation (CRO) for central analysis. Results of this independent review will not be communicated to Investigators, and the management of patients will be based solely upon the results of the RECIST assessment conducted by the Investigator. The imaging scans will be reviewed by 2 independent radiologists using RECIST version 1.1 and will be adjudicated, if required (i.e., 2 reviewers will review the scans and, in case of a disagreement, adjudication is performed by a separate reviewer). The independent reviewers will be blinded to study treatment.
The BICR will be conducted on an ongoing basis throughout the study. Where possible scans will be batched, and an in-patient series of assessments read together. For each patient, the BICR will define the overall visit response (i.e., the response obtained overall at each visit by assessing TLs, NTLs, and new lesions) and no programmatic derivation of overall visit response is necessary.
Blinded independent central review of tumour response. A sensitivity analysis for the primary endpoint for this study will be based on the BICR of the radiological scans. For each patient, the BICR will define the overall visit response (i.e., the response obtained overall at each visit by assessing TLS, NTLs and new lesions) data and no programmatic derivation of visit response is necessary. PFS will be derived programmatically from the overall visit responses determined for each visit. A BICR of all patients will be performed for the final database lock for the primary analysis of PFS. The BICR will cover all available scans up to the respective DCO.
As a sensitivity analysis to the primary endpoint, the above analysis methods will be repeated based on the BICR.

The test system is the same in assay [2]. The experiment in a line: SERENA-2 phase 2 study: objective response rate (ORR), patients with measurable disease. Conditions: for Number of patients with response: includes unconfirmed responses; for Adjusted response rate (%): logistic regression, factors prior CDK4/6 inhibitor and lung and/or liver metastasis; for ORR: comparison against fulvestrant, odds ratio: odds ratio > 1 favors AZD9833; for (%) of patients with response: patients with measurable disease. From the text: In embodiments the specification provides a method of treatment of hormone receptor positive (HR+), human epidermal growth factor receptor 2 negative (HER2−), metastatic or loco-regionally recurrent breast cancer, comprising administering camizestrant to a patient suffering from such cancer, characterised in that the cancer has recurred or progressed following at least one prior line of endocrine therapy, wherein the treatment delivers an improvement in objective response rate (ORR) relative to that obtainable with fulvestrant treatment. The ORR is defined as the percentage of patients with at least 1 Investigator-assessed visit response of complete response (CR) or partial response (PR) prior to any evidence of progression. Complete or partial responses are assessed according to the RECIST 1.1 criteria as detailed below. In embodiments the ORR derived from the method of treatment is at least 15.7%, for example 20.3%.
A complete response denotes the disappearance of all target lesions (TLs) since baseline. Any pathological lymph nodes selected as TLs must have a reduction in short axis to <10 mm. A partial response denotes an at least a 30% decrease in the sum of the diameters of TL, taking as reference the baseline sum of diameters. […] Further information on the evaluation of target and non-target lesions is provided below.
The objective response rate (ORR) will be compared between AZD9833 (each dose level) and fulvestrant using a logistic regression model adjusting for prior use of CDK4/6 inhibitors and presence of lung and/or liver metastases.
Secondary endpoints: objective response rate. The ORR is defined as the percentage of patients with at least 1 Investigator-assessed visit response of CR or PR prior to any evidence of progression. The ORR will be based on a subset of the FAS with measurable disease at baseline.
The ORR will be compared between AZD9833 (each dose level) and fulvestrant using a logistic regression model adjusting for prior use of CDK4/6 inhibitors and presence of lung and/or liver metastases. The results of the analysis will be presented in terms of an odds ratio for each treatment comparison together with its associated profile likelihood 90% CI and 2 sided p values (based on twice the change in log-likelihood resulting from the addition of a treatment factor to the model).

The test system is the same in assay [3]. The assay can be described thus: SERENA-2 phase 2 study: clinical benefit rate at 24 weeks (CBR24). The conditions noted are these: for Adjusted CBR24 rate (%): logistic regression, factors prior CDK4/6 inhibitor and lung and/or liver metastasis; for CBR24: comparison against fulvestrant, odds ratio: odds ratio > 1 favors AZD9833.
Excerpt: (§1) The CBR24 is defined as the percentage of patients who have a best objective response (BoR) of CR or PR in the first 25 weeks (to allow for a late assessment within the assessment window) or who have SD (without subsequent cancer therapy) for at least 23 weeks after start of treatment (to allow for an early assessment within the assessment window). The CBR is defined based on the Investigator's assessment of RECIST 1.1.
The CBR24 will be summarised by treatment group and analysed using a logistic regression model (similarly to the analysis for the ORR).
as §1, with “Secondary endpoints: clinical benefit rate at 24 weeks. The CBR24” for “The CBR24”, “The CBR will be defined based” for “The CBR is defined based”, “assessment of RECIST, and will be summarised by treatment group and analysed using a logistic regression model (similarly to the analysis for the ORR).” for “assessment of RECIST 1.1.”

For the compound `C[C@@H]1Cc2c(ccc3[nH]ncc23)[C@@H](c2ccc(NC3CN(CCCF)C3)cn2)N1CC(F)(F)F` [camizestrant, N-(1-(3-fluoropropyl)azetidin-3-yl)-6-((6S,8R)-8-methyl-7-(2,2,2-trifluoroethyl)-6,7,8,9-tetrahydro-3H-pyrazolo[4,3-f]isoquinolin-6-yl)pyridin-3-amine], in assay [1] (camizestrant 75 mg once daily), the “Hazard ratio for disease progression relative to fulvestrant” value stood at 0.56 and the “Median PFS” value is given as 7.4 months. Besides, in assay [1] (camizestrant 150 mg once daily), the “Hazard ratio for disease progression relative to fulvestrant” value is given as 0.47 and the “Median PFS” value is listed as 12.7 months. Further, the “Number of patients with response” value in assay [2] (AZD9833 75 mg, N=70 with measurable disease) amounted to 11. In assay [2] (AZD9833 75 mg), the “Adjusted response rate (%)” value turned out to be 15.7%; the “ORR: comparison against fulvestrant, odds ratio” value worked out at 1.43; the “(%) of patients with response” value was “(15.7) %”. Moreover, the “Number of patients with response” value in assay [2] (AZD9833 150 mg, N=65 with measurable disease) was 13. Moreover, in assay [2] (AZD9833 150 mg), the “Adjusted response rate (%)” value is listed as 20.3%; the “ORR: comparison against fulvestrant, odds ratio” value is listed as 1.96; the “(%) of patients with response” value is on record as “(20.0) %”. Besides, in assay [3] (AZD9833 75 mg), the “(%) of patients with clinical benefit at 24 weeks” value (from here on “(%) of patients … at 24 weeks”) worked out at 48.6%; the “Adjusted CBR24 rate (%)” value was found to be 50.4%; the “CBR24: comparison against fulvestrant, odds ratio” value worked out at 1.73. Besides, the “Number of patients with clinical benefit at 24 weeks” value (from here on “Number of patients … at 24 weeks”) in assay [3] (AZD9833 75 mg, N=70 evaluable) is listed as 34. In assay [3] (AZD9833 150 mg), the “(%) of patients … at 24 weeks” value worked out at 52.3%; the “Adjusted CBR24 rate (%)” value came to 55.2%; the “CBR24: comparison against fulvestrant, odds ratio” value was 2.09. Also, the “Number of patients … at 24 weeks” value in assay [3] (AZD9833 150 mg, N=65 evaluable) came to 34.

For the compound `C[C@]12CC[C@@H]3c4ccc(O)cc4C[C@@H](CCCCCCCCC[S+]([O-])CCCC(F)(F)C(F)(F)F)[C@H]3[C@@H]1CC[C@@H]2O` (stereo partly drawn) [fulvestrant, reference compound], in assay [1] (fulvestrant 500 mg once monthly injection), the “Median PFS” value was found to be 3.7 months. Moreover, in assay [2] (fulvestrant, N=68 with measurable disease), the “Number of patients with response” value was 8. In assay [2] (fulvestrant), the “Adjusted response rate (%)” value turned out to be 11.5% and the “(%) of patients with response” value was “(11.8) %”. Besides, in assay [3] (fulvestrant), the “(%) of patients … at 24 weeks” value worked out at 36.8% and the “Adjusted CBR24 rate (%)” value is listed as 37.1%. In addition, the “Number of patients … at 24 weeks” value in assay [3] (fulvestrant, N=68 evaluable) was 25.
